# Assay results as given in article PMC7436000, “The Spectrum of Design Solutions for Improving the Activity-Selectivity Product of Peptide Antibiotics against Multidrug-Resistant Bacteria and Prostate Cancer PC-3 Cells” (Molecules, 2020).
# Where two headings read alike, the source gives them in different places. Peptide text beside a SMILES is read from it.
# How the values were obtained:
# [1] = test system: E. coli clin. isolate; type: cell-based, Escherichia coli; conditions: clin. isolate
# Text: (§1) The American Type Culture Collection (ATCC, Rockville, MD, USA) strains and Escherichia coli MG1655 were used as standard bacterial strains. Gram-negative ATCC strains consisted of Escherichia coli (ATCC 25922), Pseudomonas aeruginosa (ATCC 27853), Acinetobacter baumannii (ATCC 19606), and Klebsiella pneumoniae (ATCC 13883). The only Gram-positive standard strain chosen for testing was Staphylococcus aureus (ATCC 29213). Clinical isolates with confirmed multidrug-resistance phenotype were obtained from different wards of the University Hospital Center, Split, Croatia. We described their origin, antibiograms, and resistance phenotype previously. In the same paper, we described the procedure for antimicrobial susceptibility testing on planktonic cells, using the microdilution method in 96-well microtiter plates.
# (§2) Briefly, cells were grown on agar plates and a single colony was sampled to generate a liquid culture (LC) grown overnight at 37 °C. The culture was sampled, resuspended in fresh medium, and allowed to grow at 37 °C, until reaching the mid-exponential phase. Lysogeny broth (LB) was used in the case of the E. coli MG1655 cells. Mueller Hinton (MH) medium was used for all other bacterial strains. Serial 2-fold dilutions of the peptide (64 μM to 0.0625 μM) were prepared from peptide stock solution in PBS, and added to a final load of 5 × 10^5 CFU/mL in 100 μL total volume of medium per well in a 96-well plate (Brand 781660). Bacterial cultures were incubated with peptides for 18 h to 24 h at 37 °C. The minimum inhibitory concentration (MIC) was defined as the lowest concentration of the peptide, at which no visible bacterial growth was observed. The MIC for each of the tested peptides was determined in at least three individual assays under the same laboratory conditions. […] At the end of the incubation period for MIC or MBC, the determination of the OD600 was analyzed.
# [2] = test system: P. aerug. clin. isolate; type: cell-based, Pseudomonas aeruginosa
# Text: as §1, §2
# [3] = test system: K. pneum. clin. isolate; type: cell-based, Klebsiella pneumoniae
# Text: as §1, §2
# [4] = test system: Acinetobacter baumannii (ATCC 19606); type: cell-based; conditions: ATCC 19606
# Text: as §1, §2
# [5] = test system: Escherichia coli (ATCC 25922); type: cell-based; conditions: ATCC 25922
# Text: as §1, §2
# [6] = test system: Escherichia coli MG1655; type: cell-based
# Text: as §1, §2
# [7] = test system: Klebsiella pneumoniae (ATCC 13883); type: cell-based; conditions: ATCC 13883
# Text: as §1, §2
# [8] = test system: Pseudomonas aeruginosa (ATCC 27853); type: cell-based; conditions: ATCC 27853
# Text: as §1, §2
# [9] = test system: Staphylococcus aureus (ATCC 29213); type: cell-based
# Text: as §1, §2
# [10] = test system: A. baum. clin. isolate; type: cell-based, Acinetobacter baumannii
# Text: as §1, §2
# [11] = test system: S. aureus clin. isolate; type: cell-based, Staphylococcus aureus; conditions: clin. isolate
# Text: as §1, §2
# [12] = test system: human erythrocytes; assay: Hemolysis of human erythrocytes; type: cell-based; conditions: for HC10: concentration causing 10% hemolysis, 0.2% Triton = 100%; for HC10 / HC20 / HC50: 0.5% RBC in PBS, 1 h, 37 °C, absorbance 450 nm, triplicate; for HC20: concentration causing 20% hemolysis; for HC50: concentration causing 50% hemolysis
# Experimental: Fresh blood was obtained from a healthy donor. Blood was stored in a tube containing EDTA at 4 °C and used within 24 h. Before use, 1 mL of blood was centrifuged (400× g, 10 min), and the supernatant was discarded. Moreover, 500 μL cold PBS with EDTA (1 mM) was added, mixed and centrifuged. The supernatant was discarded. Furthermore, 500 μL of cold PBS with EDTA (1 mM) was added, from which a dilution of 1% blood was made. Peptides were prepared in PBS at a 2 × concentration in 100 µL. […] The suspension was incubated at 37 °C for 1 h and centrifuged at 10,000× g for 5 min. […] After centrifugation, the supernatant was added to a 96-well microtiter plate (150–180 μL), and the absorbance was measured at 450 nm, using EnSight Multimode Plate Reader (PerkinElmer, Inc.). Each measurement was done in triplicate. […] We opted to also include the extrapolated HC50 in our results, to permit comparisons with older toxicity results. However, the HC20 measurements were used for ranking the peptides according to their selectivity and overall performance (Figure 1 and Figure 2 and Table 2).
# [13] = test system: human primary dermal fibroblasts; type: cell-based
# Experimental: (§3) Prostate cancer cells were donated by the University of Split, School of Medicine. Cells were cultured in RMPI-1640 medium, supplemented with 10% FBS, 1% Penicillin-Streptomycin, and 1% L-Glutamine. Human dermal fibroblasts were purchased from Biopredic (France) and cultured in DMEM medium, supplemented with 10% FBS and 1% Penicillin-Streptomycin. All cell lines were maintained in a humidified incubator with 5% CO2 at 37 °C. Cells were detached using the trypsin-EDTA solution and sub-cultured (7000 cells/well) in a 96-well plate overnight. Peptide stock solutions were prepared in PBS, and cancer cells were treated with 2-fold serial dilutions for 24 h at 37 °C, with 5% CO2. The toxicity of 6 selected peptides was assessed by a standard MTT assay. Treated cells were incubated with MTT working solution (0.5 mg/mL Thiazolyl Blue Tetrazolium Bromide) for 4 h at 37 °C with 5% CO2. Precipitated formazan was dissolved in 200 µL DMSO and absorbance was measured at 595 nm with EnSight Multimode Plate Reader (PerkinElmer, Inc.)
# [14] = test system: PC-3 prostate cancer cell line; type: cell-based, human
# Experimental: as §3
SMILES,MIC (E. coli clin. isolate) [1],MIC (P. aerug. clin. isolate) [2],MIC (K. pneum. clin. isolate) [3],MIC (A. baum. ATCC 19606) [4],MIC (E. coli ATCC 25922) [5],MIC (E. coli MG1655) ([6]; MG1655),MIC (K. pneum. ATCC 13883) [7],MIC (P. aerug. ATCC 27853) [8],MIC (S. aureus ATCC 29213) [9],MIC (A. baum. clin. isolate) [10],MIC (S. aureus clin. isolate) [11],HC10 [12],HC20 [12],IC50 ([13]; 24 h),(TI/ IC50C) vs. MP1 ([14]; 24 h),IC50 ([14]; 24 h),TI (HC20/IC20C) ([14]; 24 h),TI (IC50F/IC50C) ([14]; 24 h),TI/ IC50C ([14]; 24 h),HC50 [12],further results
CC[C@H](C)[C@H](NC(=O)CN)C(=O)N[C@@H](CCCCN)C(=O)N[C@@H](CCCCN)C(=O)N[C@@H](C)C(=O)N[C@H](C(=O)NCC(=O)N[C@@H](CCCCN)C(=O)N[C@@H](C)C(=O)N[C@@H](CC(C)C)C(=O)N[C@@H](CCCCN)C(=O)NCC(=O)N[C@@H](CC(C)C)C(=O)N[C@@H](CCCCN)C(=O)NCC(=O)N[C@@H](CC(C)C)C(=O)N[C@@H](CC(C)C)C(=O)N[C@@H](CCCCN)C(=O)N[C@@H](C)C(=O)N[C@@H](CC(C)C)C(=O)NCC(=O)N[C@@H](CCC(=O)O)C(=O)N[C@@H](CO)C(N)=O)C(C)C [A1A] (H-GIKKAVGKALKGLKGLLKALGES-NH2),32 µM,>64 µM,8 µM,2 µM,1 µM,2 µM,4 µM,64 µM,1 µM,4 to 8 µM,4 µM,25 µM,80 µM,30 µM,5,12 µM,27,2.5,0.21,–,"PEa(20) = SI/MIC(aureus) ([9]; ATCC 29213, 18 h): 80 µM⁻¹; HC50 * (extrapolated) ([12]; extrapolated, all concentrations tested lysed less than 50% of cells): 125 * µM"
CC[C@H](C)[C@H](NC(=O)CN)C(=O)N[C@@H](CCCCN)C(=O)N[C@@H](CCCCN)C(=O)N[C@@H](Cc1c[nH]c2ccccc12)C(=O)N[C@H](C(=O)N[C@@H](CCCCN)C(=O)NCC(=O)N[C@H](C(=O)N[C@@H](C)C(=O)N[C@@H](CCCCN)C(=O)NCC(=O)N[C@H](C(=O)N[C@@H](C)C(=O)N[C@@H](CCCCN)C(=O)N[C@@H](CC(=O)O)C(=O)N[C@@H](CC(C)C)C(=O)N[C@@H](C)C(=O)N[C@@H](CCCCN)C(=O)N[C@@H](CCCCN)C(=O)N[C@H](C(=O)N[C@@H](CC(C)C)C(N)=O)[C@@H](C)CC)C(C)C)C(C)C)C(C)C [FLEX] (H-GIKKWVKGVAKGVAKDLAKKIL-NH2),0.5 µM,2 to 4 µM,2 to 4 µM,0.5 to 1 µM,0.25 µM,16 µM,0.5 to 1 µM,2 µM,0.25 µM,1 µM,4 µM,6 µM,25 µM,30 µM,18.5,6.25 µM,25,4.8,0.77,–,–
CC[C@H](C)[C@H](NC(=O)[C@H](CCCCN)NC(=O)[C@H](CC(C)C)NC(=O)[C@H](C)NC(=O)[C@H](CCCCN)NC(=O)[C@H](CC(C)C)NC(=O)[C@H](C)NC(=O)[C@@H](NC(=O)[C@H](CCCCN)NC(=O)[C@H](C)NC(=O)[C@@H](NC(=O)[C@@H](N)CCCCN)[C@@H](C)CC)C(C)C)C(=O)N[C@@H](C)C(=O)N[C@@H](CCCCN)C(=O)NCC(=O)N[C@@H](C)C(=O)N[C@@H](CC(C)C)C(=O)N[C@@H](CCCCN)C(=O)N[C@@H](C)C(=O)N[C@@H](CC(C)C)C(N)=O [KIA1] (H-KIAKVALKALKIAKGALKAL-NH2),12 µM,3 µM,12 µM,1.5 µM,0.75 µM,8 µM,3 µM,6 µM,1 µM,1.5 µM,3 µM,3 µM,6 µM,15 µM,1.6,–,1,1,0.07,20 µM,–
"CC[C@H](C)[C@H](N)C(=O)N[C@@H](CC(=O)O)C(=O)N[C@@H](Cc1c[nH]c2ccccc12)C(=O)N[C@@H](CCCCN)C(=O)N[C@@H](CCCCN)C(=O)N[C@@H](CC(C)C)C(=O)N[C@@H](CC(C)C)C(=O)N[C@@H](CC(=O)O)C(=O)N[C@@H](C)C(=O)N[C@@H](C)C(=O)N[C@@H](CCCCN)C(=O)N[C@@H](CCC(N)=O)C(=O)N[C@H](C(=O)N[C@@H](CC(C)C)C(N)=O)[C@@H](C)CC [MP1, reference compound] (H-IDWKKLLDAAKQIL-NH2)",–,–,–,–,–,–,–,–,–,–,–,20 µM,37 µM,–,–,–,–,–,–,170 µM,"MIC (E. coli MG1655) ([6]; broth microdilution, LB medium, 5 × 10^5 CFU/mL, 18-24 h, 37 °C, at least three assays): >32 µM; IC50 ([13]; MTT assay, 7000 cells/well, 24 h treatment, 37 °C, 5% CO2, absorbance 595 nm, read-out: IC50F (Fibroblasts)): 150 µM; IC50 ([14]; MTT assay, 7000 cells/well, 24 h treatment, 37 °C, 5% CO2, absorbance 595 nm, read-out: IC50C (PC-3)): 60 µM; TI (HC20/IC20C) ([14]; human erythrocytes vs PC-3): 1; TI/ IC50C ([14]; performance, product of TI and anticancer activity (1/IC50C)): 0.04; (TI/ IC50C) vs. MP1 ([14]; relative performance with respect to MP1 control peptide): 1.0; TI (IC50F/IC50C) ([14]; therapeutic index, fibroblasts vs PC-3): 2.5"
